Columns and labels:
[1] = system: A-2780, HT-29, MCF-7, and HepG2 cancer cell lines; test: Cytotoxic screening, statements for the whole panel of four cancer cell lines; assay type: cell-based, human; details: A-2780, HT-29, MCF-7, HepG2
Text: (§1) Four cancer cell lines were used in this study viz ovarian (A-2780), colon (HT-29), breast (MCF-7), and liver (HepG2) cancer cells. They were provided by the National Institute of Cancer, Cairo University (Cairo, Egypt). The selection of those cancer cells was encouraged by the stated anticancer activity of a number 5-Fluorouracil hybrids against the mentioned cancer cells and based on the reported cytotoxic activity of a large range of bioactive cores containing sulfonamide moiety.
(§2) Cells were seeded in 96 well plates at a density of 2 × 10^4 and incubated to allow the attachment for 24 h. Then the cells were treated at different concentrations (2.5–10 μM) with 5-FU as a positive control or the synthesized compounds for 48h. 0.1% DMSO was used as a negative control. Afterward, cells were washed using PBS and the viability of cells was evaluated utilizing in vitro toxicology assay kit, MTT Based (Stock No. TOX-1, Sigma-Aldrich, Saint Louis, Missouri, USA), per the manufacturer’s instructions. The plates were read at 570 nm. IC50 was calculated using a sigmoidal dose-response curve (GraphPad Prism version 5 for Windows (GraphPad Inc., USA)). Data are presented as the mean of the three individual experiments. The degree of selectivity of the active target compounds relative to WI38 normal cell lines is expressed as previously described. Selectivity index (SI) = IC50 of a pure compound in a normal cell line/IC50 of the same pure compound in a cancerous cell line.

[2] = system: MCF-7 (breast) cancer cells; test: In vitro cytotoxicity assessment (MTT), MCF-7; assay type: cell-based, human; details: for IC50: Homo sapiens, MCF7, 48 h, MTT, mean of three experiments ± SD, NA: not active; for SI (selectivity index) MCF-7: IC50 in WI38 normal cells / IC50 in MCF-7
Text: as §1, §2

[3] = system: HT-29 (colon) cancer cells; test: In vitro cytotoxicity assessment (MTT), HT-29; assay type: cell-based, human; details: for IC50: Homo sapiens, HT-29, 48 h, MTT, mean of three experiments ± SD, NA: not active; for SI (selectivity index) HT-29: IC50 in WI38 normal cells / IC50 in HT-29
Text: as §1, §2

[4] = system: A-2780 (ovarian) cancer cells; test: In vitro cytotoxicity assessment (MTT), A-2780; assay type: cell-based, human; details: for IC50: Homo sapiens, A2780, 48 h, MTT, mean of three experiments ± SD, NA: not active; for SI (selectivity index) A-2780: IC50 in WI38 normal cells / IC50 in A-2780
Text: as §1, §2

[5] = system: HepG2 (liver) cancer cells; test: In vitro cytotoxicity assessment (MTT), HepG2; assay type: cell-based, human; details: for IC50: Homo sapiens, HepG2, 48 h, MTT, mean of three experiments ± SD, NA: not active; for SI (selectivity index) HepG2: IC50 in WI38 normal cells / IC50 in HepG2
Text: as §1, §2

A-2780 cells [6] = test: Cell cycle analysis (PI flow cytometry), A-2780; assay type: cell-based, human; details: IC50 of 6e, 48 h
Description: (§3) To evaluate cancer cells distribution through different cell cycle stages, the DNA content of propidium iodide-stained nuclei was assessed by flow cytometry as depicted earlier. […] Then, the cells were washed twice with ice-cold phosphate-buffered saline (PBS) and gathered by centrifugation. The cell pellets were mixed with 75% ethanol (−20 °C). Afterward, cells were stained with the propidium iodide flow cytometry kit (ab139418, Abcam, Cambridge, MA, USA), according to the manufacturer’s instructions. Cell cycle distribution was established by FACS Calibur flow cytometer (BD Biosciences, San Jose, CA, USA). Cell cycle distribution was measured using […] software (Becton Dickinson Immunocytometry Systems, San Jose, CA, USA).

MCF-7 cells [7] = test: Cell cycle analysis (PI flow cytometry), MCF-7; assay type: cell-based, human; details: IC50 of 6e, 48 h
Description: as §3

p21 = test: Western blot analysis for p21 in MCF-7 cells; assay type: cell-based, human; details: 6e at IC50 (1.67 μM), 48 h, relative to actin
Description: (§4) Whole-cell protein lysates were prepared according to a standard protocol using RIPA buffer (Cell Signaling, Danvers, MA, USA). Total protein concentrations were determined in the supernatant using the Bradford method. Equal amounts (20 µg) of protein samples were mixed and boiled with SDS Loading buffer for 10 min, allowed to cool on ice and then loaded into SDS-polyacrylamide gel and separated by Cleaver electrophoresis unit (Cleaver, UK), transferred onto polyvinylidene fluoride (PVDF) membranes (BioRad, USA) for 30 min using a Semi-dry Electroblotter (Biorad, USA) at 2.5 A and 25 V for 30 min. Membranes were blocked with 5% non-fat dry milk in TBS-T and incubated overnight with the primary antibody: anti-p21, anti-p27 antibody, or anti-β-actin antibody (1:1000; Cell Signaling Technology, Inc., Danvers, MA, USA), then incubated with secondary HRP-linked antibody (1:5000). Development was done using Pierce ECL2 chemiluminescent and chemifluorescent substrate (Perkin Elmer, Waltham, MA, USA). The chemiluminescent signals were captured using a CCD camera-based imager (Chemi Doc imager, Biorad, USA), and the bands’ intensities were then measured relative to actin by ImageLab (Biorad).

A-2780 cells [8] = test: Annexin V-FITC/PI apoptosis assay, A-2780; assay type: cell-based, human; details: 6e at its IC50, 48 h
Description: (§5) For the apoptosis assay, the BioVision annexin V-FITC apoptosis detection kit (Cat No.: K101; BioVision, Inc., Milpitas, CA, USA) was used, per the manufacturer’s instructions. […] The cells were resuspended in 500 μL of Annexin V–binding buffer, followed by the addition of 5μL of Annexin V–FITC, then incubated in the dark for 10 min at room temperature. Analysis was performed using a FACS Calibur flow cytometer (BD Biosciences, San Jose, CA, USA), using […] software (Becton Dickinson Immunocytometry Systems, San Jose, CA, USA).

WI38 normal cells = test: In vitro cytotoxicity assessment (MTT), normal cells; assay type: cell-based; details: WI-38; normal human cell line WI38, MTT
Description: as §2, with “Then the cells were treated at different concentrations (2.5–10 μM) with 5-FU as a positive control or the synthesized compounds for 48h.” left out

HT-29 cells [9] = test: Annexin V-FITC/PI apoptosis assay, HT-29; assay type: cell-based, human; details: 6e at its IC50, 48 h
Description: as §5

HepG2 cells [10] = test: Annexin V-FITC/PI apoptosis assay, HepG2; assay type: cell-based, human; details: 6e at its IC50, 48 h
Description: as §5

CDK2/CyclinA2 = target: T1, CDK2/CyclinA2 (Homo sapiens, UniProt P24941); test: In vitro inhibitory screening of CDK2 (CDK2 Assay kit, Kinase-Glo MAX); assay type: biochemical; details: CDK2/CyclinA2, 30 °C 45 min; mean of three experiments ± SD; read-out: CDK2 Protein Kinase (IC50 in µM)
T1 construct: purchased #79599
Description: To measure CDK2/CyclinA2 activity, the CDK2 Assay kit #79599 was used for screening and profiling applications, together with Kinase-Glo® MAX (Promega#V6071) as a detection reagent. […] Briefly, 25 μL of the master mixture containing 6 μL Kinase assay buffer + 1 μL ATP + 5 μL CDK substrate peptide + 13 μL distilled water were added to each well. Later, 5 µL of inhibitor buffer only or diluted compound were added to the blank or test inhibitor wells, respectively. Then, 20μL of Kinase assay buffer was added to blank wells. The reaction was started by the addition of 20 μL of CDK2/CyclinA2 enzyme to the wells of the test inhibitor. The final volume was 50 µL in all of the reactions. Incubation was at 30 °C for 45 min for all the enzymatic reactions. Finally, to each well, 50 μL of Kinase-Glo MAX reagent was added. The plate was incubated for 15 min at room temperature then, the luminescence signal was measured using a Bio Tek Synergy 2 microplate reader. Experiments were performed in triplicates.

HepG2 cells [11] = test: Cell cycle analysis (PI flow cytometry), HepG2; assay type: cell-based, human; details: IC50 of 6e, 48 h
Description: as §3

MCF-7 cells [12] = test: Annexin V-FITC/PI apoptosis assay, MCF-7; assay type: cell-based, human; details: 6e at its IC50, 48 h
Description: as §5

HT-29 cells [13] = test: Cell cycle analysis (PI flow cytometry), HT-29; assay type: cell-based, human; details: IC50 of 6e, 48 h
Description: as §3

p27 = test: Western blot analysis for p27 in MCF-7 cells; assay type: cell-based, human; details: 6e at IC50 (1.67 μM), 48 h, relative to actin
Description: as §4

Cc1[nH]c(=S)[nH]c(=O)c1S(=O)(=O)C1C(=O)CC(C)(C)CC1=O [Compound 4, 5,5-Dimethyl-2-[(6-Methyl-4-Oxo-2-Thioxo-1,2,3,4-Tetrahydropyrimidin-5-Yl)sulfonyl]cyclohexane-1,3-Dione]
melting point: 340 to 342 °C | anticancer activity against the four cancer cell lines, in words [1]: low or no anticancer activity | IC50 [2]: 10.8 ± 1.6 µM | IC50 [3]: 14.2 ± 2.85 µM

Cc1[nH]c(=S)[nH]c(=O)c1S(=O)(=O)C1C(=O)NC(=O)NC1=O [Compound 3, 5-[(6-Methyl-4-Oxo-2-Thioxo-1,2,3,4-Tetrahydropyrimidin-5-Yl)sulfonyl]pyrimidine-2,4,6(1H,3H,5H)-Trione]
melting point: 344 to 346 °C | anticancer activity against the four cancer cell lines, in words [1]: low or no anticancer activity | IC50 [2]: 14.9 ± 2.89 µM | IC50 [3]: 13 ± 2 µM

Cc1[nH]c(=S)[nH]c(=O)c1S(=O)(=O)Cl [Compound 2, 6-Methyl-4-Oxo-2-Thioxo-1,2,3,4-Tetrahydropyrimidine-5-Sulfonyl Chloride]
melting point: 324 to 326 °C | anticancer activity against the four cancer cell lines, in words [1]: low anticancer activity | IC50 [2]: 16.5 ± 1.4 µM | IC50 [3]: 18 ± 1.04 µM | IC50 [4]: 21.4 ± 2.51 µM | IC50 [5]: 17 ± 0.93 µM

Cc1[nH]c(=S)[nH]c(=O)c1S(=O)(=O)C1Cc2ccccc2C1=O (stereo not drawn) [Compound 5, 6-Methyl-5-(1-Oxo-2,3-Dihydro-1H-Inden-2-Ylsulfonyl)-2-Thioxo-2,3-Dihydropyrimidin-4(1H)-One]
melting point: 348 to 350 °C | anticancer activity against the four cancer cell lines, in words [1]: low or no anticancer activity | IC50 [2]: 17.3 ± 2.35 µM | IC50 [3]: 11.7 ± 1.96 µM

Cc1[nH]c(=S)[nH]c(=O)c1S(=O)(=O)Nc1cccc(Cl)c1Cl [Compound 6e, N-(2,3-Dichlorophenyl)-6-Methyl-4-Oxo-2-Thioxo-1,2,3,4-Tetrahydropyrimidine-5-Sulfonamide]
melting point: 326 to 328 °C | phase of cell growth arrest (A-2780 cells [6]): G1/S phase | phase of cell growth arrest (MCF-7 cells [7]): S phase | protein expression level of p21, increase compared to control (p21): about 2.6 fold | % Early Apoptosis (A-2780 cells [8]): 2.38% | % Late Apoptosis (A-2780 cells [8]): 22.02% | % Necrosis (A-2780 cells [8]): 9.41% | % Total (A-2780 cells [8]): 33.81% | IC50 [2]: 1.67 ± 0.31 µM | SI (selectivity index) MCF-7 [2]: 36.05 | IC50 (WI38 normal cells): 60.2 ± 1.77 µM | % Early Apoptosis (HT-29 cells [9]): 1.61% | % Late Apoptosis (HT-29 cells [9]): 26.24% | % Necrosis (HT-29 cells [9]): 14.51% | % Total (HT-29 cells [9]): 42.36% | % Early Apoptosis (HepG2 cells [10]): 0.84% | % Late Apoptosis (HepG2 cells [10]): 18.97% | % Necrosis (HepG2 cells [10]): 8.81% | % Total (HepG2 cells [10]): 28.62% | IC50 (CDK2/CyclinA2): 0.407 ± 0.021 µM | IC50 [3]: 1.75 ± 0.4 µM | SI (selectivity index) HT-29 [3]: 34.40 | phase of cell growth arrest (HepG2 cells [11]): G2/M phase | % Early Apoptosis (MCF-7 cells [12]): 3.82% | % Late Apoptosis (MCF-7 cells [12]): 23.71% | % Necrosis (MCF-7 cells [12]): 11.75% | % Total (MCF-7 cells [12]): 39.28% | phase of cell growth arrest (HT-29 cells [13]): S phase | protein expression level of p27, increase compared to control (p27): ~2.2 fold | IC50 [4]: 2.52 ± 0.47 µM | SI (selectivity index) A-2780 [4]: 23.91 | IC50 [5]: 2.02 ± 0.85 µM | SI (selectivity index) HepG2 [5]: 29.80

CC(=O)c1cccc(NS(=O)(=O)c2c(C)[nH]c(=S)[nH]c2=O)c1 [Compound 6d, N-(3-Acetylphenyl)-6-Methyl-4-Oxo-2-Thioxo-1,2,3,4-Tetrahydropyrimidine-5-Sulfonamide]
melting point: 318 to 320 °C | IC50 [2]: 2.3 ± 0.62 µM | SI (selectivity index) MCF-7 [2]: 32.33 | IC50 (WI38 normal cells): 74.4 ± 4.74 µM | IC50 (CDK2/CyclinA2): 0.567 ± 0.021 µM | IC50 [3]: 6.13 ± 0.53 µM | SI (selectivity index) HT-29 [3]: 12.13 | IC50 [4]: 11.7 ± 1.99 µM | SI (selectivity index) A-2780 [4]: 6.37 | IC50 [5]: 5.24 ± 1.05 µM

Cc1[nH]c(=S)[nH]c(=O)c1S(=O)(=O)Nc1cccc(C(=O)C=Cc2ccc(Br)cc2)c1 [Compound 7c, N-(3-(3-(4-Bromophenyl)acryloyl)phenyl)-6-Methyl-4-Oxo-2-Thioxo-1,2,3,4-Tetrahydro Pyrimidine-5-Sulfonamide]
melting point: 335 to 337 °C | IC50 [2]: 11.7 ± 2.07 µM | SI (selectivity index) MCF-7 [2]: 5.38 | IC50 (WI38 normal cells): 62.7 ± 1.93 µM | IC50 (CDK2/CyclinA2): 8.2 ± 0.486 µM | IC50 [3]: 8.14 ± 1.95 µM | SI (selectivity index) HT-29 [3]: 7.71 | IC50 [4]: 6.1 ± 0.54 µM | SI (selectivity index) A-2780 [4]: 10.28 | IC50 [5]: 8.25 ± 0.68 µM | SI (selectivity index) HepG2 [5]: 7.60

From PMC8584424, “Synthesis of Novel 2-Thiouracil-5-Sulfonamide Derivatives as Potent Inducers of Cell Cycle Arrest and CDK2A Inhibition Supported by Molecular Docking” (International Journal of Molecular Sciences, 2021)
